Literature values, collected in paper PMC7221964 (Molecules, 2020).
Read-outs that look alike come from different tables or passages of the source.

Test system: epigenetic reader proteins
From the text: ITC studies provided thermodynamic parameters (Gibbs free energy of binding ΔG°, enthalpy of binding ΔH°, entropy of binding ΔS°) for the association between five ...

Row | SMILES | recognition by reader proteins (different epigenetic reader proteins) | recognition by reader proteins (panel of the same five reader proteins)
1 | C[N+](C)(C)CCSCC(N)C(=O)O (centres unmarked) [KCme3, trimethylthialysine] | well recognized | –
2 | C[N+](C)(C)CCCCCC(N)C(=O)O (centres unmarked) [trimethylhomolysine] | – | very well recognized
